TGI and GI50 data for 17 compounds are collected here from PubChem BioAssay (NCI).

SMILES strings stand for the structures.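 Each compound was tested at five concentrations against cells in 96-well plates for 48 hours. Here, GI50 denotes the concentration required for 50% inhibition of growth. At the TGI there is no net growth.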

Among the test systems are EKVX NSCLC; HCC-2998 colon; M14 melanoma; OVCAR-5 ovarian; RPMI-8226 leukemia; SF-268 CNS; SK-MEL-28 melanoma; SNB-19 CNS; HOP-92 NSCLC; LOX IMVI melanoma.
Assay in all cases: DTP human tumour cell line panel, 48 h

By TGI is commonly meant the concentration at which net growth stops. With `Nc1ccccc1Nc1ccccc1C(=O)[O-].Nc1ccccc1Nc1ccccc1C(=O)[O-].[Cu+2]`, the TGI in the assay on EKVX NSCLC, in the assay with HCC-2998 colon, with M14 melanoma, with OVCAR-5 ovarian, in the assay on RPMI-8226 leukemia and in the assay with SF-268 CNS was more than 100 µM each time. The TGI with SK-MEL-28 melanoma and with SNB-19 CNS was more than 100 µM in each case.

For the compound `CSC1=Nc2ccccc2N(C)c2c1c(-c1ccccc1)nn2C`, the TGI in the assay on EKVX NSCLC is more than 100 µM; in the assay on HCC-2998 colon it was 56 µM; in the assay with HOP-92 NSCLC, more than 100 µM; in the assay with LOX IMVI melanoma, more than 100 µM; in the assay on M14 melanoma, more than 100 µM; in the assay on OVCAR-5 ovarian it was more than 100 µM. Moreover, the figures for the TGI in the assay on RPMI-8226 leukemia, with SF-268 CNS and in the assay on SK-MEL-28 melanoma were 37.1 µM, more than 100 µM and more than 100 µM, respectively.

Turning to `O=C1CC(=O)N(c2ccccc2)N1/C(=C/c1ccccc1)c1ccccc1`, the TGI in the assay on EKVX NSCLC was more than 100 µM; in the assay with HCC-2998 colon, 37.3 µM; in the assay on HOP-92 NSCLC it was 31.3 µM; in the assay with LOX IMVI melanoma it was 3.06 µM; in the assay with M14 melanoma, 46.6 µM; in the assay on OVCAR-5 ovarian, more than 100 µM. The TGI came to 34.5 µM in the assay with RPMI-8226 leukemia, 36.3 µM in the assay with SF-268 CNS, 26 µM in the assay on SK-MEL-28 melanoma and 43.6 µM with SNB-19 CNS.

The GI50 is the concentration that inhibits growth by half. With `C=CC(=O)Nc1cccc(-c2nc(SC)nc(Nc3ccccc3OC)c2C#N)c1`, the GI50 in the assay with EKVX NSCLC was 2.71 µM; with HCC-2998 colon, 2.58 µM; with HOP-92 NSCLC, 1.7 µM; in the assay with M14 melanoma, 2.22 µM; in the assay on OVCAR-5 ovarian, 2.26 µM; with RPMI-8226 leukemia it was 3.11 µM. Moreover, the values for the GI50 in the assay with SF-268 CNS, in the assay on SK-MEL-28 melanoma and in the assay with SNB-19 CNS were 2.85 µM, 2.29 µM and 2.31 µM, respectively. The TGI in the assay on EKVX NSCLC was 10.4 µM; in the assay on HCC-2998 colon it was 8.66 µM; in the assay on HOP-92 NSCLC, 4.28 µM; with M14 melanoma it was 5.64 µM; with OVCAR-5 ovarian, 5.92 µM; in the assay on RPMI-8226 leukemia it was more than 100 µM. The figures for the TGI with SF-268 CNS, in the assay on SK-MEL-28 melanoma and in the assay with SNB-19 CNS were 14.3 µM, 5.71 µM and 6.51 µM, respectively.

Consider `CC(C)CC(N)C(=O)OCN1C(=O)C2C3C=CC(C2C1=O)C1C2C(=O)N(COC(=O)C(N)CC(C)C)C(=O)C2C31` (stereo not given), for which the TGI with EKVX NSCLC is more than 100 µM; in the assay with HCC-2998 colon, more than 100 µM; with HOP-92 NSCLC, more than 100 µM; with LOX IMVI melanoma, more than 58.1 µM; in the assay with M14 melanoma it was more than 100 µM; in the assay on OVCAR-5 ovarian, more than 100 µM. Besides, the TGI is more than 78.6 µM with RPMI-8226 leukemia, more than 100 µM with SF-268 CNS, more than 100 µM in the assay with SK-MEL-28 melanoma and more than 100 µM in the assay with SNB-19 CNS.

As for `CCn1cc(C(c2ccc(Cl)cc2)n2ccnc2)c2cc(Br)ccc21` (stereo not given), the TGI was more than 100 µM in the assay with EKVX NSCLC; 29 µM in the assay on HCC-2998 colon; 19.4 µM in the assay on HOP-92 NSCLC; 28.2 µM in the assay on LOX IMVI melanoma; 26.7 µM in the assay on M14 melanoma; 25.5 µM with OVCAR-5 ovarian. In addition, the TGI in the assay with RPMI-8226 leukemia is 75 µM; in the assay with SF-268 CNS, 27.4 µM; with SNB-19 CNS it was 28.3 µM.

For `Cc1ccc2c(c1)nc(N)n[n+]2[O-]`, the TGI with EKVX NSCLC, in the assay on LOX IMVI melanoma, with M14 melanoma, in the assay on OVCAR-5 ovarian, with RPMI-8226 leukemia and in the assay with SF-268 CNS was more than 100 µM each time. The TGI in the assay with SK-MEL-28 melanoma and with SNB-19 CNS was more than 100 µM in each case.

`OCC1CCCC(n2cnc3c(=S)nc[nH]c32)O1` (stereo not given): the total growth inhibition concentration (TGI) in the assay with EKVX NSCLC, in the assay on HCC-2998 colon, in the assay with HOP-92 NSCLC, in the assay on LOX IMVI melanoma, in the assay with M14 melanoma and in the assay on OVCAR-5 ovarian was more than 100 µM throughout. The TGI in the assay with RPMI-8226 leukemia, in the assay on SF-268 CNS, with SK-MEL-28 melanoma and in the assay on SNB-19 CNS was more than 100 µM each time.

`Cc1[nH]c(/C=C2\C(=O)Nc3ccc(S(=O)(=O)Cc4c(Cl)cccc4Cl)cc32)c(C)c1C(=O)N1CCC[C@@H]1CN1CCCC1`: the GI50 in the assay with HCC-2998 colon is 1.95 µM; in the assay on HOP-92 NSCLC, 2.09 µM; with LOX IMVI melanoma, 1.73 µM; with M14 melanoma, 1.5 µM; with OVCAR-5 ovarian it was 1.95 µM; in the assay on SF-268 CNS, 1.6 µM. The GI50 in the assay on SK-MEL-28 melanoma was 1.4 µM; with SNB-19 CNS, 2.41 µM. The TGI was 3.6 µM in the assay on HCC-2998 colon; more than 44 µM in the assay with HOP-92 NSCLC; 3.22 µM with LOX IMVI melanoma; 2.92 µM in the assay with M14 melanoma; 3.72 µM in the assay on OVCAR-5 ovarian; 4.03 µM in the assay on SF-268 CNS. In addition, the TGI came out at 2.75 µM in the assay with SK-MEL-28 melanoma and 6.74 µM in the assay on SNB-19 CNS.

With `COC1OC(=O)[C@H]2O[N+]([O-])=C(C)[C@@H]12` (stereo not given in full), the TGI in the assay on EKVX NSCLC, in the assay on HCC-2998 colon, in the assay on HOP-92 NSCLC, in the assay with LOX IMVI melanoma, with OVCAR-5 ovarian and in the assay on RPMI-8226 leukemia was more than 100 µM throughout. The TGI in the assay with SF-268 CNS, with SK-MEL-28 melanoma and in the assay with SNB-19 CNS was more than 100 µM each time.

Take `O=C(O)c1ccc(NC(c2ccccc2)c2ccc3cccnc3c2O)cc1` (stereo not given): the TGI with EKVX NSCLC is more than 85.6 µM; in the assay on HCC-2998 colon it was more than 74.8 µM; in the assay with HOP-92 NSCLC, more than 100 µM; in the assay with LOX IMVI melanoma, more than 57.6 µM; with M14 melanoma it was more than 85.5 µM; with OVCAR-5 ovarian, more than 100 µM. The TGI in the assay with RPMI-8226 leukemia was 28 µM; in the assay with SF-268 CNS, more than 100 µM; in the assay with SK-MEL-28 melanoma it was more than 100 µM; with SNB-19 CNS, more than 100 µM.

As to `N#Cc1c(NC(=S)NC(=O)c2ccccc2)nc2c(c1-c1ccccc1)CCC2`, the TGI with EKVX NSCLC, in the assay with LOX IMVI melanoma, in the assay with M14 melanoma, with OVCAR-5 ovarian, with RPMI-8226 leukemia and with SF-268 CNS was more than 100 µM each time. The total growth inhibition concentration (TGI) in the assay on SNB-19 CNS is more than 100 µM.

As to `COc1cc2oc(-c3ccc(O)cc3)c(OC3OC(C)C(O)C(O)C3O)c(=O)c2c(O)c1OC` (stereo not given), the TGI in the assay with EKVX NSCLC, in the assay on HCC-2998 colon, with HOP-92 NSCLC, in the assay with LOX IMVI melanoma, in the assay with M14 melanoma and in the assay on OVCAR-5 ovarian was more than 100 µM each time. The TGI in the assay with RPMI-8226 leukemia, in the assay with SF-268 CNS, in the assay with SK-MEL-28 melanoma and in the assay on SNB-19 CNS was more than 100 µM in each case.

For the compound `O=[Se]([O-])c1ccccc1.O=[Se]([O-])c1ccccc1.[OH3+].[OH3+].[Pt+2]`, the GI50 in the assay with EKVX NSCLC was 6.34 µM; with HCC-2998 colon, 16.6 µM; with HOP-92 NSCLC it was 14.4 µM; in the assay with LOX IMVI melanoma, 3.42 µM; in the assay with OVCAR-5 ovarian it was 15.5 µM; in the assay with RPMI-8226 leukemia it was 5.41 µM. In addition, the GI50 in the assay on SF-268 CNS is 6.37 µM; in the assay on SK-MEL-28 melanoma, 10.8 µM; in the assay on SNB-19 CNS it was 10.9 µM. The TGI came to 26 µM in the assay on EKVX NSCLC; 55.9 µM in the assay with HCC-2998 colon; 40.7 µM in the assay with HOP-92 NSCLC; 19.2 µM in the assay with LOX IMVI melanoma; 39.1 µM in the assay on OVCAR-5 ovarian; 39.7 µM in the assay with RPMI-8226 leukemia. In addition, the TGI with SF-268 CNS worked out at 18.2 µM; in the assay on SK-MEL-28 melanoma, 36.1 µM; in the assay on SNB-19 CNS, 33.7 µM.

Consider `O=C(Nc1ccc(I)cc1C(=O)NCCO)c1cccs1`, for which the TGI with EKVX NSCLC, with HCC-2998 colon, in the assay on LOX IMVI melanoma, in the assay on M14 melanoma, in the assay on OVCAR-5 ovarian and in the assay with RPMI-8226 leukemia was more than 100 µM throughout. Besides, the TGI in the assay on SF-268 CNS, in the assay with SK-MEL-28 melanoma and in the assay on SNB-19 CNS was more than 100 µM throughout.

Take `Nc1n[nH]c(=O)[nH]1`: the TGI in the assay on EKVX NSCLC, with HCC-2998 colon, in the assay with HOP-92 NSCLC, in the assay with LOX IMVI melanoma, in the assay on OVCAR-5 ovarian and with RPMI-8226 leukemia was more than 100 µM throughout. Moreover, the concentration for total growth inhibition (TGI) in the assay with SF-268 CNS, with SK-MEL-28 melanoma and in the assay on SNB-19 CNS was more than 100 µM in each case.

As to `CCC(=O)C(c1ccccc1)c1ccccn1` (stereo not given), the TGI with EKVX NSCLC, with HCC-2998 colon, in the assay with HOP-92 NSCLC, in the assay with LOX IMVI melanoma, in the assay with M14 melanoma and in the assay with OVCAR-5 ovarian was more than 100 µM throughout. For the same compound, the concentration for total growth inhibition (TGI) with RPMI-8226 leukemia, in the assay on SF-268 CNS, in the assay on SK-MEL-28 melanoma and in the assay with SNB-19 CNS was more than 100 µM throughout.
